The term IC50 denotes the point on the concentration scale where inhibition reaches its midpoint.

Chain of Macrophage metalloelastase (P39900 whole entry): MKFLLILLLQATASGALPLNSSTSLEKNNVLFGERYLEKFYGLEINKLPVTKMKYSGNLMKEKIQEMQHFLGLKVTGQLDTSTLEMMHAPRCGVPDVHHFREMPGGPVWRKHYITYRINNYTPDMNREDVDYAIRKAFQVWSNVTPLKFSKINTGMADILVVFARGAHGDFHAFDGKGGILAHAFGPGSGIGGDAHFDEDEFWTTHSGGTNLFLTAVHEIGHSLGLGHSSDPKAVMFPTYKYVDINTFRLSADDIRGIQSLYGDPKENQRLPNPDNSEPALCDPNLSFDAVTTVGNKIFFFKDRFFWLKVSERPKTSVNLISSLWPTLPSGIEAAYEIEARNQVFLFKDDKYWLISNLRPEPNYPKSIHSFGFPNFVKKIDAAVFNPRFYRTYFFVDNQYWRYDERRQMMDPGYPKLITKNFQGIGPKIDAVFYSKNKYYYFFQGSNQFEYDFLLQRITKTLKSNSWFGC
Chain of Stromelysin-1 (P08254 whole entry): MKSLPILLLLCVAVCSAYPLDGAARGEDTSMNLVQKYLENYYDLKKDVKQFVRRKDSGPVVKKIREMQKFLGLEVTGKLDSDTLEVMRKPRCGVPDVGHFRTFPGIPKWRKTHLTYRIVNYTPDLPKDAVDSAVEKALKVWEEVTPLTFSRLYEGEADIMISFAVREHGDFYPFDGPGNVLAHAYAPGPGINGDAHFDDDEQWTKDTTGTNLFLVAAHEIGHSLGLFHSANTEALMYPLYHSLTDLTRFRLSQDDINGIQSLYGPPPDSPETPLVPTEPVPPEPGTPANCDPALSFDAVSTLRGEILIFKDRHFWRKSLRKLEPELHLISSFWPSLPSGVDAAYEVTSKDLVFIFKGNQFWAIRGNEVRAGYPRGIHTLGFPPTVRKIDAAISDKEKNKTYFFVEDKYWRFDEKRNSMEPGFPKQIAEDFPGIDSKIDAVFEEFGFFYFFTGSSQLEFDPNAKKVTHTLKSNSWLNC
Chain of 72 kDa type IV collagenase (P08253 whole entry): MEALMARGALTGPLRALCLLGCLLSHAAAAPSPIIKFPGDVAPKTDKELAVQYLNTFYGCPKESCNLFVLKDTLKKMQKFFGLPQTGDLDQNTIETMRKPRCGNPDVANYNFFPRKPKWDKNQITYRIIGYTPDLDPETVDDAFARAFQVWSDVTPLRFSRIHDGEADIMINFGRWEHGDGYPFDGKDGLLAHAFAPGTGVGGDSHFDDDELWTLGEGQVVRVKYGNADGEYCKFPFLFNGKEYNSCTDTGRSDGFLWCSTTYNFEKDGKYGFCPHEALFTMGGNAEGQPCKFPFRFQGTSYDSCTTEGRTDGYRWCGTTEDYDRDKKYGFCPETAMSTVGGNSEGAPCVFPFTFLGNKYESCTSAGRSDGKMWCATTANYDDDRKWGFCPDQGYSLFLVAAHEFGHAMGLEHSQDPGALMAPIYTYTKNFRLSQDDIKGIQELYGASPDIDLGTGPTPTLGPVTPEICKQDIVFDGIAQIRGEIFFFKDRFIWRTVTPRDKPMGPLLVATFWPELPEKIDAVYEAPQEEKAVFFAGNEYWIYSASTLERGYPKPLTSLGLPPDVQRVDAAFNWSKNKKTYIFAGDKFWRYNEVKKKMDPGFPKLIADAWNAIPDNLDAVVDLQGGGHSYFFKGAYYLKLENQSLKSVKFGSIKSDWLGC

One assay addresses 72 kDa type IV collagenase (Homo sapiens, UniProt P08253). Nature of the assay: Inhibition of recombinant human […]-activated MMP2 using Cy3-PLGLK(Cy5Q)AR-NH2 as substrate measured after 40 mins by spectrofluorimetric method.
For `CC(C)[C@H](NS(=O)(=O)c1ccc(-c2cccc(CNC(=O)c3nc4ccccc4c(=O)[nH]3)c2)cc1)C(=O)NO`, the IC50 was determined as 1.9 nM.

Take `O=C(NCc1cccc(OCCCS(=O)(=O)N2CCCCC2C(=O)O)c1)c1nc2ccccc2c(=O)[nH]1` (configuration not stated): the half-maximal inhibitory concentration (IC50) was 14 nM.

Regarding `O=C(NCc1cccc(OCCCS(=O)(=O)N2CCCCC2C(=O)NO)c1)c1nc2ccccc2c(=O)[nH]1` (configuration not stated), the concentration for half-maximal inhibition (IC50) was 0.57 nM.

With `O=C(NCc1cccc(N2CCN(C(=O)Cc3n[nH]c(=O)[nH]3)CC2)c1)c1nc2ccccc2c(=O)[nH]1`, the IC50 came out at 10 nM.

Regarding `O=C(NCc1cccc(OCCCOc2nc[nH]n2)c1)c1nc2scc(-c3cccc(Cl)c3)c2c(=O)[nH]1`, the concentration for half-maximal inhibition (IC50) is 510 nM.

The target of another assay is Disintegrin and metalloproteinase domain-containing protein 17 (Homo sapiens, UniProt P78536). Nature of the assay: Inhibition of recombinant human TACE using Cy3-PLAQAV(Cy5Q-L-2,3-diaminopropionic acid)-RSSSR-NH2 as substrate measured after 40 mins by spectrofluorimetric method.
Chain of Disintegrin and metalloproteinase domain-containing protein 17 (P78536 whole entry, the tested form may be a part): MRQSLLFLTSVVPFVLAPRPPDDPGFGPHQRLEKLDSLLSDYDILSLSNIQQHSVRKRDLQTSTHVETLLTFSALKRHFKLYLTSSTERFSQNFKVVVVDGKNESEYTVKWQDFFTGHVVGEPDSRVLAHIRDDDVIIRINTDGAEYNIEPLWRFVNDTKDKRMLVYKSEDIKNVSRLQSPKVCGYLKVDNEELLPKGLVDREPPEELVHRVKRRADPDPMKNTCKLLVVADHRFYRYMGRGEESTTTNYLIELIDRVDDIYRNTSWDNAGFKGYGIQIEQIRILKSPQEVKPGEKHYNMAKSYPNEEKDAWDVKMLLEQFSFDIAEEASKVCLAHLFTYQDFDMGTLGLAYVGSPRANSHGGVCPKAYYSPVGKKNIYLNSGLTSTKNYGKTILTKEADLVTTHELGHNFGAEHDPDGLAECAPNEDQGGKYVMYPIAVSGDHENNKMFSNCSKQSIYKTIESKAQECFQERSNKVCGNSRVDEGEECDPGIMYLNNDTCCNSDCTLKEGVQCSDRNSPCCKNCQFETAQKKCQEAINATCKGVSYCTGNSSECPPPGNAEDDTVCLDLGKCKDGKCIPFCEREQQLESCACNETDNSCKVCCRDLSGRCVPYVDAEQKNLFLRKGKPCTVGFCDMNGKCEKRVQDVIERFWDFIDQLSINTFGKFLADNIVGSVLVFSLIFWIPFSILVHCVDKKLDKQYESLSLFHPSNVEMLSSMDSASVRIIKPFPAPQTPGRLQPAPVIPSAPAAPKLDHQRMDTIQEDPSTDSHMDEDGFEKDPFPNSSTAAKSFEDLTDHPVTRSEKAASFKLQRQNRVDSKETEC
For `CC(C)[C@H](NS(=O)(=O)c1ccc(-c2cccc(CNC(=O)c3nc4ccccc4c(=O)[nH]3)c2)cc1)C(=O)NO`, the IC50 is more than 10000 nM.

In the case of `O=C(NCc1cccc(OCCCS(=O)(=O)N2CCCCC2C(=O)O)c1)c1nc2ccccc2c(=O)[nH]1` (configuration not stated), the IC50 is more than 10000 nM.

`O=C(NCc1cccc(OCCCS(=O)(=O)N2CCCCC2C(=O)NO)c1)c1nc2ccccc2c(=O)[nH]1` (configuration not stated): the 50% inhibitory concentration (IC50) was 510 nM.

As to `O=C(NCc1cccc(N2CCN(C(=O)Cc3n[nH]c(=O)[nH]3)CC2)c1)c1nc2ccccc2c(=O)[nH]1`, the IC50 was more than 10000 nM.

In a further assay the target is Stromelysin-2 (Homo sapiens, UniProt P09238). Nature of the assay: Inhibition of recombinant human […]-activated MMP10 using Cy3-PLGLK(Cy5Q)AR-NH2 as substrate measured after 40 mins by spectrofluorimetric method.
Chain of Stromelysin-2 (P09238 whole entry): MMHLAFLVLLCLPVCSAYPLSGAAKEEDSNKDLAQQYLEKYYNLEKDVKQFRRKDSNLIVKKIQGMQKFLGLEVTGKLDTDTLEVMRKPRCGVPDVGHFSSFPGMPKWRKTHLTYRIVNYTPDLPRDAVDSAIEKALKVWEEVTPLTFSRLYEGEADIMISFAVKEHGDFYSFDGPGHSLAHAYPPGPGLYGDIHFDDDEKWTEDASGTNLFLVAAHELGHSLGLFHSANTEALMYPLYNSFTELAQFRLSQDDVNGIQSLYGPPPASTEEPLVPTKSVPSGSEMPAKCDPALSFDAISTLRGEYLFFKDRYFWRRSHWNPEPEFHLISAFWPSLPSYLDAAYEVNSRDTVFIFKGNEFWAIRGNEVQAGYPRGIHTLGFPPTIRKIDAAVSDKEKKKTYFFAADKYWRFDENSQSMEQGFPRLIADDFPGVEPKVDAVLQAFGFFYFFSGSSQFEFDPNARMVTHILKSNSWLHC
On to `CC(C)[C@H](NS(=O)(=O)c1ccc(-c2cccc(CNC(=O)c3nc4ccccc4c(=O)[nH]3)c2)cc1)C(=O)NO`, for which the IC50 was 0.3 nM.

In the case of `O=C(NCc1cccc(OCCCS(=O)(=O)N2CCCCC2C(=O)O)c1)c1nc2ccccc2c(=O)[nH]1` (configuration not stated), the half-maximal inhibitory concentration (IC50) turned out to be 240 nM.

For the compound `O=C(NCc1cccc(OCCCS(=O)(=O)N2CCCCC2C(=O)NO)c1)c1nc2ccccc2c(=O)[nH]1` (configuration not stated), the IC50 came out at 2.6 nM.

Take `O=C(NCc1cccc(N2CCN(C(=O)Cc3n[nH]c(=O)[nH]3)CC2)c1)c1nc2ccccc2c(=O)[nH]1`: the half-inhibitory concentration (IC50) is 6.2 nM.

Take `O=C(NCc1cccc(OCCCOc2nc[nH]n2)c1)c1nc2scc(-c3cccc(Cl)c3)c2c(=O)[nH]1`: the IC50 worked out at 820 nM.

For a further assay, the target named is T1, Matrilysin (Homo sapiens, UniProt P09237).
T1 sequence (P09237 whole entry): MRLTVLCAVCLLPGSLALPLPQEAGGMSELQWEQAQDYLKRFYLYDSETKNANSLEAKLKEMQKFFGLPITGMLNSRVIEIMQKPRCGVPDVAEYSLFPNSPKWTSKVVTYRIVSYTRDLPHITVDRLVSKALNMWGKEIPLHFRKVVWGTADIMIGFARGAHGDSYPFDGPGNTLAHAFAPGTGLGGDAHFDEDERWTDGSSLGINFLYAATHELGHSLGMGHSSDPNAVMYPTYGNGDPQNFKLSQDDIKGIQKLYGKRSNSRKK
Briefly: Inhibition of recombinant human […]-activated MMP7 using Cy3-PLGLK(Cy5Q)AR-NH2 as substrate measured after 40 mins by spectrofluorimetric method.
With `CC(C)[C@H](NS(=O)(=O)c1ccc(-c2cccc(CNC(=O)c3nc4ccccc4c(=O)[nH]3)c2)cc1)C(=O)NO`, the IC50 is 7.3 nM.

Consider `O=C(NCc1cccc(OCCCS(=O)(=O)N2CCCCC2C(=O)O)c1)c1nc2ccccc2c(=O)[nH]1` (configuration not stated), for which the IC50 was more than 10000 nM.

As to `O=C(NCc1cccc(OCCCS(=O)(=O)N2CCCCC2C(=O)NO)c1)c1nc2ccccc2c(=O)[nH]1` (configuration not stated), the IC50 stood at 2000 nM.

Turning to `O=C(NCc1cccc(N2CCN(C(=O)Cc3n[nH]c(=O)[nH]3)CC2)c1)c1nc2ccccc2c(=O)[nH]1`, the IC50 was more than 10000 nM.

A further assay addresses Collagenase 3 (Homo sapiens, UniProt P45452).
Description: Inhibition of recombinant human AMPA-activated MMP13 using Cy3-PLGLK(Cy5Q)AR-NH2 as substrate measured after 40 mins by spectrofluorimetric method
For `CC(C)[C@H](NS(=O)(=O)c1ccc(-c2cccc(CNC(=O)c3nc4ccccc4c(=O)[nH]3)c2)cc1)C(=O)NO`, the 50% inhibitory concentration (IC50) is 0.0032 nM.

As for `O=C(NCc1cccc(OCCCS(=O)(=O)N2CCCCC2C(=O)O)c1)c1nc2ccccc2c(=O)[nH]1` (configuration not stated), the IC50 was 0.24 nM.

`O=C(NCc1cccc(OCCCS(=O)(=O)N2CCCCC2C(=O)NO)c1)c1nc2ccccc2c(=O)[nH]1` (configuration not stated) registered a 50% inhibitory concentration (IC50) of 0.052 nM.

`O=C(NCc1cccc(N2CCN(C(=O)Cc3n[nH]c(=O)[nH]3)CC2)c1)c1nc2ccccc2c(=O)[nH]1`: half-maximal inhibition (IC50) was put at 0.11 nM.

The next assay concerns the target Stromelysin-1 (Homo sapiens, UniProt P08254). Briefly: Inhibition of recombinant human […]-activated MMP3 using Cy3-PLGLK(Cy5Q)AR-NH2 as substrate measured after 40 mins by spectrofluorimetric method.
For the compound `CC(C)[C@H](NS(=O)(=O)c1ccc(-c2cccc(CNC(=O)c3nc4ccccc4c(=O)[nH]3)c2)cc1)C(=O)NO`, the 50% inhibitory concentration (IC50) was determined as 1.5 nM.

On to `O=C(NCc1cccc(OCCCS(=O)(=O)N2CCCCC2C(=O)O)c1)c1nc2ccccc2c(=O)[nH]1` (configuration not stated), for which the 50% inhibitory concentration (IC50) came to 370 nM.

`O=C(NCc1cccc(OCCCS(=O)(=O)N2CCCCC2C(=O)NO)c1)c1nc2ccccc2c(=O)[nH]1` (configuration not stated): the IC50 is 2.6 nM.

`O=C(NCc1cccc(N2CCN(C(=O)Cc3n[nH]c(=O)[nH]3)CC2)c1)c1nc2ccccc2c(=O)[nH]1`: the IC50 amounted to 23 nM.

Another assay deals with Neutrophil collagenase (Homo sapiens, UniProt P22894). Nature of the assay: Inhibition of recombinant human […]-activated MMP8 using Cy3-PLGLK(Cy5Q)AR-NH2 as substrate measured after 40 mins by spectrofluorimetric method.
Chain of Neutrophil collagenase (P22894 whole entry): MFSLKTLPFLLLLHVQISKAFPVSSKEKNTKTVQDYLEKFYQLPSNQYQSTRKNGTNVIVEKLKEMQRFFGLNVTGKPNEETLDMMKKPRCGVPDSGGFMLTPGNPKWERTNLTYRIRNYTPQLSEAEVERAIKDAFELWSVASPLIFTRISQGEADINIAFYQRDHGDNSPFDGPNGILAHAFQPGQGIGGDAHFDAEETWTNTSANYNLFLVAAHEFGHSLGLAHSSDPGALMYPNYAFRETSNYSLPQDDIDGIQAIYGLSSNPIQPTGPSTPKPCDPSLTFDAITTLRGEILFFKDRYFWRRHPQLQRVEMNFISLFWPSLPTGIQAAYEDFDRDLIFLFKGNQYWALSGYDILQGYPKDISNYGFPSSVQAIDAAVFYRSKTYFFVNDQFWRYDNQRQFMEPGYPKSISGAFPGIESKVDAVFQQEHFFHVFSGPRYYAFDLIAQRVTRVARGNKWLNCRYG
On to `CC(C)[C@H](NS(=O)(=O)c1ccc(-c2cccc(CNC(=O)c3nc4ccccc4c(=O)[nH]3)c2)cc1)C(=O)NO`, for which the IC50 is 0.82 nM.

Regarding `O=C(NCc1cccc(OCCCS(=O)(=O)N2CCCCC2C(=O)O)c1)c1nc2ccccc2c(=O)[nH]1` (configuration not stated), the half-inhibitory concentration (IC50) stood at 14 nM.

`O=C(NCc1cccc(OCCCS(=O)(=O)N2CCCCC2C(=O)NO)c1)c1nc2ccccc2c(=O)[nH]1` (configuration not stated): the half-inhibitory concentration (IC50) stood at 1.2 nM.

`O=C(NCc1cccc(N2CCN(C(=O)Cc3n[nH]c(=O)[nH]3)CC2)c1)c1nc2ccccc2c(=O)[nH]1`: the IC50 was 3.9 nM.

For the compound `O=C(NCc1cccc(OCCCOc2nc[nH]n2)c1)c1nc2scc(-c3cccc(Cl)c3)c2c(=O)[nH]1`, the IC50 was more than 1000 nM.

For the next assay, the target named is Matrix metalloproteinase-14 (Homo sapiens, UniProt P50281). Briefly: Inhibition of recombinant human GST-tagged MMP14 using Cy3-PLGLK(Cy5Q)AR-NH2 as substrate measured after 40 mins by spectrofluorimetric method.
For `CC(C)[C@H](NS(=O)(=O)c1ccc(-c2cccc(CNC(=O)c3nc4ccccc4c(=O)[nH]3)c2)cc1)C(=O)NO`, the IC50 came out at 3.8 nM.

With `O=C(NCc1cccc(OCCCS(=O)(=O)N2CCCCC2C(=O)O)c1)c1nc2ccccc2c(=O)[nH]1` (configuration not stated), the 50% inhibitory concentration (IC50) was more than 10000 nM.

In the case of `O=C(NCc1cccc(OCCCS(=O)(=O)N2CCCCC2C(=O)NO)c1)c1nc2ccccc2c(=O)[nH]1` (configuration not stated), the half-maximal inhibitory concentration (IC50) was determined as 550 nM.

Turning to `O=C(NCc1cccc(N2CCN(C(=O)Cc3n[nH]c(=O)[nH]3)CC2)c1)c1nc2ccccc2c(=O)[nH]1`, the IC50 was determined as 8900 nM.

The target in the next assay is Matrix metalloproteinase-9 (Homo sapiens, UniProt P14780). Nature of the assay: Inhibition of recombinant human […]-activated MMP9 using Cy3-PLGLK(Cy5Q)AR-NH2 as substrate measured after 40 mins by spectrofluorimetric method.
Chain of Matrix metalloproteinase-9 (P14780 whole entry): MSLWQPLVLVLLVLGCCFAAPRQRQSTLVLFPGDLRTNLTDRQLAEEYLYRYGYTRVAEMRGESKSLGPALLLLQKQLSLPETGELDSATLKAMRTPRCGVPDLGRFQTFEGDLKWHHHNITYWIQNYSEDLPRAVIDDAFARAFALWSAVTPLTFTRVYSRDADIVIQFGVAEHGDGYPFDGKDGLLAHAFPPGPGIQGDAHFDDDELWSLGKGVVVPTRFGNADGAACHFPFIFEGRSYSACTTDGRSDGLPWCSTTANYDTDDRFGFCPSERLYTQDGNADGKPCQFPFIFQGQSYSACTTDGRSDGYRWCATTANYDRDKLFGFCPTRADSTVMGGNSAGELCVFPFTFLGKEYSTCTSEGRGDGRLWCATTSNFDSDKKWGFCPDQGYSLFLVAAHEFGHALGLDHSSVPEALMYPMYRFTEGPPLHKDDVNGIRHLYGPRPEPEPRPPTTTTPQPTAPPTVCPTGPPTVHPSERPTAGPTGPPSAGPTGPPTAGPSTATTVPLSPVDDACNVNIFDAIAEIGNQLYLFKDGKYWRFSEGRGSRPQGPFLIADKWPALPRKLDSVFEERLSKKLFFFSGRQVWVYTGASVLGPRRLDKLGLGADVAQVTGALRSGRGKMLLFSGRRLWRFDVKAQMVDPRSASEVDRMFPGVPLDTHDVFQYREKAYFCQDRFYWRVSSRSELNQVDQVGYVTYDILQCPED
Turning to `CC(C)[C@H](NS(=O)(=O)c1ccc(-c2cccc(CNC(=O)c3nc4ccccc4c(=O)[nH]3)c2)cc1)C(=O)NO`, the IC50 was found to be 4.7 nM.

On to `O=C(NCc1cccc(OCCCS(=O)(=O)N2CCCCC2C(=O)O)c1)c1nc2ccccc2c(=O)[nH]1` (configuration not stated), for which the concentration for half-maximal inhibition (IC50) was more than 10000 nM.

With `O=C(NCc1cccc(OCCCS(=O)(=O)N2CCCCC2C(=O)NO)c1)c1nc2ccccc2c(=O)[nH]1` (configuration not stated), the 50% inhibitory concentration (IC50) was determined as 72 nM.

Consider `O=C(NCc1cccc(N2CCN(C(=O)Cc3n[nH]c(=O)[nH]3)CC2)c1)c1nc2ccccc2c(=O)[nH]1`, for which the half-maximal inhibitory concentration (IC50) is 2900 nM.

Another assay concerns the target T2, Interstitial collagenase (Homo sapiens, UniProt P03956).
T2 sequence (P03956 whole entry): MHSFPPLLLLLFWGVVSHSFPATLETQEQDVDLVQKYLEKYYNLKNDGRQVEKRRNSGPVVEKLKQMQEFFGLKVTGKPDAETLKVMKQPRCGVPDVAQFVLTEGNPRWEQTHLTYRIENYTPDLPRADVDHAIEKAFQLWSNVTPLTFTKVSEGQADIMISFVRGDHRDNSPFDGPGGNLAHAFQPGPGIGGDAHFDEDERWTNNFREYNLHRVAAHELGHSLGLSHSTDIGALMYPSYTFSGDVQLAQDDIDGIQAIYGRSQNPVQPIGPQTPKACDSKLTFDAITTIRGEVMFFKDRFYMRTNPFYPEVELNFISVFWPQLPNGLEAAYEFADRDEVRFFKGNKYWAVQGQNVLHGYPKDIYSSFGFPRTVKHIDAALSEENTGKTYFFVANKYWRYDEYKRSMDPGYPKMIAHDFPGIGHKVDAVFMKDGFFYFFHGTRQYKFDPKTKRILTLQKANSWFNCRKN
Briefly: Inhibition of recombinant human […]-activated MMP1 using Cy3-PLGLK(Cy5Q)AR-NH2 as substrate measured after 40 mins by spectrofluorimetric method.
As to `CC(C)[C@H](NS(=O)(=O)c1ccc(-c2cccc(CNC(=O)c3nc4ccccc4c(=O)[nH]3)c2)cc1)C(=O)NO`, the half-inhibitory concentration (IC50) amounted to 11 nM.

`O=C(NCc1cccc(OCCCS(=O)(=O)N2CCCCC2C(=O)O)c1)c1nc2ccccc2c(=O)[nH]1` (configuration not stated): the half-inhibitory concentration (IC50) was more than 10000 nM.

`O=C(NCc1cccc(OCCCS(=O)(=O)N2CCCCC2C(=O)NO)c1)c1nc2ccccc2c(=O)[nH]1` (configuration not stated): the half-maximal inhibitory concentration (IC50) is more than 10000 nM.

On to `O=C(NCc1cccc(N2CCN(C(=O)Cc3n[nH]c(=O)[nH]3)CC2)c1)c1nc2ccccc2c(=O)[nH]1`, for which the half-inhibitory concentration (IC50) was more than 10000 nM.

A further assay addresses Macrophage metalloelastase (Homo sapiens, UniProt P39900). Nature of the assay: Inhibition of recombinant human […]-activated MMP12 using Cy3-PLGLK(Cy5Q)AR-NH2 as substrate measured after 40 mins by spectrofluorimetric method.
As to `CC(C)[C@H](NS(=O)(=O)c1ccc(-c2cccc(CNC(=O)c3nc4ccccc4c(=O)[nH]3)c2)cc1)C(=O)NO`, the IC50 came to 8.1 nM.

Consider `O=C(NCc1cccc(OCCCS(=O)(=O)N2CCCCC2C(=O)O)c1)c1nc2ccccc2c(=O)[nH]1` (configuration not stated), for which the 50% inhibitory concentration (IC50) is 300 nM.

In the case of `O=C(NCc1cccc(OCCCS(=O)(=O)N2CCCCC2C(=O)NO)c1)c1nc2ccccc2c(=O)[nH]1` (configuration not stated), the half-inhibitory concentration (IC50) came to 1.8 nM.

In the case of `O=C(NCc1cccc(N2CCN(C(=O)Cc3n[nH]c(=O)[nH]3)CC2)c1)c1nc2ccccc2c(=O)[nH]1`, the IC50 came out at 260 nM.

These data come from ChEMBL document CHEMBL3867480 (Bioorg Med Chem, 2016).
